Legend:
[1] = biological target: voltage-gated sodium channel Nav1.7 (Homo sapiens (Human), UniProt Q15858); test: Nav1.7 screening assay, IonWorks Quattro automated patch-clamp electrophysiology; format: cell-based; settings: stable cell line expressing Nav1.7; holding potential −100 mV; compound incubation 5 minutes; IC50 fitted to percent block; read-out: Nav 1.7 IC50
Procedure: (§1) Assay Procedure Nav1.7 and Nav1.5 Screening Assay
(§2) Stable cell lines expressing the full-length protein of the voltage-gated sodium channels Nav1.7 or Nav1.5, with or without one beta-1, beta-2, beta-3, or beta-4 subunit, are created by transfected CHO cells or HEK293 cells, or any other suitable cell line, with a vector construct containing the complete open reading frame under a suitable promoter, as well known in the art.
(§3) Electrophysiological studies are performed with an IonWorks Quattro (Molecular Devices Corp.) automated patch-clamp electrophysiology platform as described by (Schroeder K et al. Journal of Biomolecular Screening 2003, 8 (1), 50-64). Buffers for the experiments have the following composition (mM): Internal solution; K-gluconate 100, KCl 40, MgCl2 3.2, HEPES 5, EGTA 3, pH 7.3. To this amphotericin B is added to final concentration of 0.1 mg/ml to generate access solution. External solution; Dulbecco's Phosphate buffered saline (D-PBS) NaCl 137.93, KCl 2.67, KH2PO4 1.47, Na2HPO4 8.06, CaCl2 0.90, MgCl2 0.49. Prior to the experiment the cells expressing the voltage-gated ion channel of interest are detached from the tissue culture flasks, centrifuged and resuspended in D-PBS. Compounds are prepared and serially diluted in DMSO and finally diluted 1:100 in D-PBS. Cells are exposed to compounds through the pipetting system integrated into the platform and the voltage-gated ion channel of interest is activated with specific voltage stimulation protocols. The following voltage stimulation protocol is used for testing compounds against the voltage-gated sodium channel Nav1.7; from a holding potential of −100 mV a train of eight 60 ms depolarising steps to −20 mV at a frequency of 14 Hz are employed followed by a further step to −20 mV for 2000 ms. After which the voltage is returned to −100 mV for 10 ms before another voltage step to −20 mV for 60 ms is applied. The following voltage stimulation protocol is used for testing compounds against the voltage-gated sodium channel Nav1.5; from a holding potential of −120 mV a train of twenty-six 120 ms depolarising steps to −20 mV at a frequency of 5 Hz are employed. Recordings are made before and after compound addition with the compound incubation time being 5 minutes.
(§4) Percent block was calculated for each concentration in duplicate for peak 1 and peak 10 and peak 1 and 25 for Nav 1.7 and Nav 1.5 respectively in order to assess compound activity at close and inactivated states and IC50 curves were fitted to percent block as a function of concentration.

[2] = biological target: voltage-gated sodium channel Nav1.5 (Homo sapiens (Human), UniProt Q14524); test: Nav1.5 screening assay, IonWorks Quattro automated patch-clamp electrophysiology; format: cell-based; settings: stable cell line expressing Nav1.5; holding potential −120 mV; compound incubation 5 minutes; IC50 fitted to percent block; read-out: Nav 1.5 IC50
Procedure: as §1, §2, §3, §4

Sequence of voltage-gated sodium channel Nav1.5 (Q14524 whole entry): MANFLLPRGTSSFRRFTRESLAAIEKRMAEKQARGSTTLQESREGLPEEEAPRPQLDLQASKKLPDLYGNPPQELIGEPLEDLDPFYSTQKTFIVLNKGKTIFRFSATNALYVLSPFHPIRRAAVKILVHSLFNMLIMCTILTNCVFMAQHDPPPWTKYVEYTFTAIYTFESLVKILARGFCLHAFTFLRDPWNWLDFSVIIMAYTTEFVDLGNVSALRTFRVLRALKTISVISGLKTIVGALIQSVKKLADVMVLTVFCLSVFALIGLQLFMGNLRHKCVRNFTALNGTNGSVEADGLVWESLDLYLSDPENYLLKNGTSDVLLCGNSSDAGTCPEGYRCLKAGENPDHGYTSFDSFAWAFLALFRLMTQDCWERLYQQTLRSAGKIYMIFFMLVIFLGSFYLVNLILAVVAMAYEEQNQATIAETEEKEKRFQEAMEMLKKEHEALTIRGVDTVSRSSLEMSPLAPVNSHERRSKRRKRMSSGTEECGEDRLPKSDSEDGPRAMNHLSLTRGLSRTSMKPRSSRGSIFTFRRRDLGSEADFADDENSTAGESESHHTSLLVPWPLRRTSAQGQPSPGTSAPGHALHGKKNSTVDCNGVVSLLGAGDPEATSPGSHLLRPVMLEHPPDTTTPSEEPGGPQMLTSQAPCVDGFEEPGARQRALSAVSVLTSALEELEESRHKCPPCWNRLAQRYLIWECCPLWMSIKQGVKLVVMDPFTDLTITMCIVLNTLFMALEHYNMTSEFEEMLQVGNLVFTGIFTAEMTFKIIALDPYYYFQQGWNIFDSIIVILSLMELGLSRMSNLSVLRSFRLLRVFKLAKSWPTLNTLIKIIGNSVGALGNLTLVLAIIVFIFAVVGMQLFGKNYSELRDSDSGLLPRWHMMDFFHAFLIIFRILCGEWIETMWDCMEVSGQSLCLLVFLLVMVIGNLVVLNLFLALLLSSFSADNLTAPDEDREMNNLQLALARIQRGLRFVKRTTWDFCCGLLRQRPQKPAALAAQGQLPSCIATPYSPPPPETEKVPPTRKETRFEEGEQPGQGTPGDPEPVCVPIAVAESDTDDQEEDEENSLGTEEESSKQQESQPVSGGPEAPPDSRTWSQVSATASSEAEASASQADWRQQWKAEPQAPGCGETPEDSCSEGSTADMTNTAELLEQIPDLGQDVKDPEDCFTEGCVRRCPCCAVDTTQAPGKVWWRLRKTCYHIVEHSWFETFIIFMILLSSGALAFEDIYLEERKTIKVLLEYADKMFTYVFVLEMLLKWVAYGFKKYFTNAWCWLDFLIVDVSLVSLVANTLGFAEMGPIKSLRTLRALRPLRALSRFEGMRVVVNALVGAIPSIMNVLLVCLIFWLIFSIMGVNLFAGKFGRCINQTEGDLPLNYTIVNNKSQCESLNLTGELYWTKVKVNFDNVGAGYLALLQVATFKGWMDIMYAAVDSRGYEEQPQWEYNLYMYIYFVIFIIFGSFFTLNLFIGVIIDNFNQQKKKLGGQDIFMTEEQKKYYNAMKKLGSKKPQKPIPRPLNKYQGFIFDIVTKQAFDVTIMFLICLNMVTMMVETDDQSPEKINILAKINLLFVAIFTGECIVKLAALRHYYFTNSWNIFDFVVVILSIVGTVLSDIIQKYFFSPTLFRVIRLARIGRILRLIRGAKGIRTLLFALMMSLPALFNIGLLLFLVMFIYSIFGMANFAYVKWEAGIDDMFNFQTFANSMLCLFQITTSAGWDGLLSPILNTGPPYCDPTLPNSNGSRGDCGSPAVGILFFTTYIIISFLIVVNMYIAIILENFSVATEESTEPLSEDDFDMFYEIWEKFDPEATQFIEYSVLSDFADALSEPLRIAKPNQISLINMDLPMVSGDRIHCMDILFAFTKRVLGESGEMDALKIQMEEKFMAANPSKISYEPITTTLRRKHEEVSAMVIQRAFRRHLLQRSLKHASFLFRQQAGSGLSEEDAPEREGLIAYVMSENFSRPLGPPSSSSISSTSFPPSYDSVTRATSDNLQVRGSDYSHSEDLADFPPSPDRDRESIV
Sequence of voltage-gated sodium channel Nav1.7 (Q15858 whole entry): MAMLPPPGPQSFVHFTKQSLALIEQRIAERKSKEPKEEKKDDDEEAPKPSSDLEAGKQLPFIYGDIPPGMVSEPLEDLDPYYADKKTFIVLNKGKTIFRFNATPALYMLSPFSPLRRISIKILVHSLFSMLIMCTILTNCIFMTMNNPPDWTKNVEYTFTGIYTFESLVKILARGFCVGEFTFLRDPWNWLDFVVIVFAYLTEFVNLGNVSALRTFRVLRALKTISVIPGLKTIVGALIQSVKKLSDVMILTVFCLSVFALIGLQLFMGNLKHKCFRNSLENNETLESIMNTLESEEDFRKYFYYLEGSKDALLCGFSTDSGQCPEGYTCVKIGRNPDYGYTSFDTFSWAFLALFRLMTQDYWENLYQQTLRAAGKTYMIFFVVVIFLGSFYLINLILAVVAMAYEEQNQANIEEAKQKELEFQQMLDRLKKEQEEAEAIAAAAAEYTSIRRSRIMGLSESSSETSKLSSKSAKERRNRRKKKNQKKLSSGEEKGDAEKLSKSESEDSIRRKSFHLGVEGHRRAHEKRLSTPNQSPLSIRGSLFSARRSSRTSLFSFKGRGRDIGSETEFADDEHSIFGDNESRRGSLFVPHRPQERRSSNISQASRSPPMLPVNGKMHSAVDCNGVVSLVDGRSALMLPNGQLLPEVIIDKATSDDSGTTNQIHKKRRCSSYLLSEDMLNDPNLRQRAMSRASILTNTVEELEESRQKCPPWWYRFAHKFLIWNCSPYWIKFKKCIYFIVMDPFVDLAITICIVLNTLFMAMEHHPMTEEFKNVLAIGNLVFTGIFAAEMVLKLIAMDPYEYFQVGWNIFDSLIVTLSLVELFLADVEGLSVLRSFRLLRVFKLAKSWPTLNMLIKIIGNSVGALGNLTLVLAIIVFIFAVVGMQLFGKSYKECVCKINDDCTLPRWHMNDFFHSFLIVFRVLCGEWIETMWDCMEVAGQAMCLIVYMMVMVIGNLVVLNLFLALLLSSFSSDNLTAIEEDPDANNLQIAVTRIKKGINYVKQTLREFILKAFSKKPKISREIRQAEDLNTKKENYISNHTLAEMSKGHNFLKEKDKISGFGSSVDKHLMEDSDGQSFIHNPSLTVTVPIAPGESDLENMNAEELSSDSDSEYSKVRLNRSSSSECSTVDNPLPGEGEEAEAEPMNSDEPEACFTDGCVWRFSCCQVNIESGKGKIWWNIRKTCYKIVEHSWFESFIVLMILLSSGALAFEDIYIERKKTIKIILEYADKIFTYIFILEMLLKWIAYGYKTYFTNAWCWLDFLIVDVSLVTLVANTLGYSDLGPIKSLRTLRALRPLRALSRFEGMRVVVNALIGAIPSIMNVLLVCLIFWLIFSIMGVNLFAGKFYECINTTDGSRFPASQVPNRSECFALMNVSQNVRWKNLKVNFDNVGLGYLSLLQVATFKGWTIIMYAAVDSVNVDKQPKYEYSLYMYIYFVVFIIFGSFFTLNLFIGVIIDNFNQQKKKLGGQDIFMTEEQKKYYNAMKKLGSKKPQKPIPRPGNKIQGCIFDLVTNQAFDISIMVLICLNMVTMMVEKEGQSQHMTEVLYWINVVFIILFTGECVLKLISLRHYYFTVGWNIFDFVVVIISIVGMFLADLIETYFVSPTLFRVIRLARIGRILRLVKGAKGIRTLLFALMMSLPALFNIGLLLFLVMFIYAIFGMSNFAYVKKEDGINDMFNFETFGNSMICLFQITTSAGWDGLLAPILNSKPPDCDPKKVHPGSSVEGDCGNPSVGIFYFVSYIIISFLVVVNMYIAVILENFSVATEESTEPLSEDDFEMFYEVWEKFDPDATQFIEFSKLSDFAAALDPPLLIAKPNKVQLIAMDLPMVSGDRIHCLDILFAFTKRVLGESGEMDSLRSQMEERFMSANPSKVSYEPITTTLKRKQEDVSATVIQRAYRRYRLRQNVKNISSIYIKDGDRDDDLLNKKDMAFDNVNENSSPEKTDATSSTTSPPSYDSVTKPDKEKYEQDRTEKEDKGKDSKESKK

Row | Molecule | IC50 [1] | IC50 [2]
1 | 5-Amino-1-(2-(2-methoxyethoxy)phenyl)-3-methyl-N-(2-methyl-4-(trifluoromethyl)phenyl)-1H-pyrazole-4-carboxamide [Example 115] | 700 nM | > 33000 nM
2 | COc1ccccc1-n1ncc(C(=O)Nc2ccc(Cl)cc2)c1N [Example 1, 5-Amino-N-(4-chlorophenyl)-1-(2-methoxyphenyl)-1H-pyrazole-4-carboxamide] | 700 nM | 21000 nM
3 | Cc1ccccc1-n1ncc(C(=O)Nc2ccc(Cl)cc2F)c1N [Example 7, 5-Amino-N-(4-chloro-2-fluoro-phenyl)-1-(o-tolyl)-1H-pyrazole-4-carboxamide] | 300 nM | > 33000 nM
4 | COCCOc1ccccc1-n1nc(C)c(C(=O)Nc2ccc(C(F)(F)F)cc2F)c1N [Example 38, 5-Amino-N-(2-fluoro-4-(trifluoromethyl)phenyl)-1-(2-(2-methoxyethoxy)phenyl)-3-methyl-1H-pyrazole-4-carboxamide] | 700 nM | > 33000 nM
5 | Cc1c(F)cccc1-n1ncc(C(=O)Nc2ccc(OC(F)(F)F)cn2)c1N [Example 55, 5-Amino-1-(3-fluoro-2-methylphenyl)-N-(5-(trifluoromethoxy)pyridin-2-yl)-1H-pyrazole-4-carboxamide] | 500 nM | > 33000 nM
6 | Cc1c(F)cccc1-n1ncc(C(=O)N2CCc3cc(Cl)ccc32)c1N [Example 57, (5-Amino-1-(3-fluoro-2-methylphenyl)-1H-pyrazol-4-yl)(5-chloroindolin-1-yl)methanone] | 800 nM | > 33000 nM
7 | COc1ccccc1-n1ncc(C(=O)N2CCc3cc(Cl)ccc32)c1N [Example 61, (5-Amino-1-(2-methoxyphenyl)-1H-pyrazol-4-yl)(5-chloroindolin-1-yl)methanone] | 900 nM | 28000 nM
8 | Cc1c(F)cccc1-n1nnc(C(=O)Nc2ccc(Cl)cn2)c1N [Example 75, 5-Amino-N-(5-chloropyridin-2-yl)-1-(3-fluoro-2-methylphenyl)-1H-1,2,3-triazole-4-carboxamide] | 800 nM | > 33000 nM
9 | CCc1nn(-c2ccccc2OC)c(N)c1C(=O)Nc1ccc(C(F)(F)F)cn1 [Example 114, 5-Amino-3-ethyl-1-(2-methoxyphenyl)-N-(5-(trifluoromethyl)pyridin-2-yl)-1H-pyrazole-4-carboxamide] | 400 nM | > 33000 nM
10 | Cc1nn(-c2cccc(F)c2C)c(N)c1C(=O)Nc1ccc(Cl)cn1 [Example 137, 5-Amino-N-(5-chloro-2-pyridyl)-1-(3-fluoro-2-methylphenyl)-3-methyl-pyrazole-4-carboxamide] | 600 nM | > 33000 nM
11 | CCc1ccccc1-n1ncc(C(=O)Nc2ccc(OCC(F)(F)F)cn2)c1N [Example 140, 5-Amino-1-(2-ethylphenyl)-N-(5-(2,2,2-trifluoroethoxy)pyridin-2-yl)-1H-pyrazole-4-carboxamide] | 1000 nM | > 33000 nM
12 | CCc1nn(-c2cccc(F)c2C)c(N)c1C(=O)Nc1ccc(C(F)(F)F)cn1 [Example 143, 5-Amino-3-ethyl-1-(3-fluoro-2-methylphenyl)-N-[5-trifluoromethyl-2-pyridyl]pyrazole-4-carboxamide] | 300 nM | 10000 nM
13 | Cc1nn(-c2ccccc2F)c(N)c1C(=O)Nc1ccc(C(F)(F)F)cn1 [Example 153, 5-Amino-1-(2-fluorophenyl)-3-methyl-N-(5-(trifluoromethyl)pyridin-2-yl)-1H-pyrazole-4-carboxamide] | 400 nM | > 33000 nM
14 | Nc1c(C(=O)Nc2ccc(Cl)cn2)cnn1-c1ccccc1-c1cccnc1 [Example 196, 5-Amino-N-(5-chloropyridin-2-yl)-1-(2-(pyridin-3-yl)phenyl)-1H-pyrazole-4-carboxamide] | 700 nM | 17000 nM
15 | COc1cc(-c2ccccc2-n2ncc(C(=O)Nc3ccc(Cl)cn3)c2N)ccn1 [Example 197, 5-Amino-N-(5-chloropyridin-2-yl)-1-(2-(2-methoxypyridin-4-yl)phenyl)-1H-pyrazole-4-carboxamide] | 1000 nM | > 33000 nM
16 | Nc1c(C(=O)Nc2ccc(C(F)(F)F)cn2)cnn1-c1ccccc1O [Example 208, 5-Amino-1-(2-hydroxyphenyl)-N-(5-(trifluoromethyl)pyridin-2-yl)-1H-pyrazole-4-carboxamide] | 300 nM | > 33000 nM
17 | Cc1c(F)cccc1-n1cnc(C(=O)Nc2ccc(C(F)(F)F)cn2)c1N [Example 251, 5-Amino-1-(3-fluoro-2-methylphenyl)-N-(5-(trifluoromethyl)pyridin-2-yl)-1H-imidazole-4-carboxamide] | 200 nM | 
18 | COc1ccccc1-n1cnc(C(=O)Nc2ccc(Cl)cc2)c1N [Example 254, 5-Amino-N-(4-chlorophenyl)-1-(2-methoxyphenyl)-1H-imidazole-4-carboxamide] | 1900 nM | > 33000 nM
